Test results reported in the NIST ThermoML archive (doi:10.1016/j.jct.2013.05.037).
Numbers after ± are expanded uncertainties.

Experiments:
[1] = mn = molality of the nth substance listed, in mol/kg; conditions: for surface tension liquid-gas: Pendant drop shape; for viscosity / speed of sound / mass density: 101 kPa, Liquid; for viscosity: Capillary tube (Ostwald / Ubbelohde) method; for speed of sound: Sing-around technique in a fixed-path interferometer; for mass density: Vibrating tube method
[2] = for surface tension liquid-gas: Pendant drop shape; for viscosity / mass density: 101.33 kPa, Liquid; for viscosity: Capillary tube (Ostwald / Ubbelohde) method; for mass density: Vibrating tube method

Structure (SMILES): NCC(=O)O [2-aminoacetic acid] + O
- surface tension liquid-gas ([1]; 293.15 K, m1 = 0.0502): 72.83 ± 0.65 mN/m
- surface tension liquid-gas ([1]; 293.15 K, m1 = 0.0755): 72.89 ± 0.65 mN/m
- surface tension liquid-gas ([1]; 293.15 K, m1 = 0.1007): 72.77 ± 0.65 mN/m
- surface tension liquid-gas ([1]; 293.15 K, m1 = 0.1261): 72.66 ± 0.65 mN/m
- surface tension liquid-gas ([1]; 293.15 K, m1 = 0.1514): 72.54 ± 0.64 mN/m
- surface tension liquid-gas ([1]; 298.15 K, m1 = 0.0502): 72.09 ± 0.64 mN/m
- surface tension liquid-gas ([1]; 298.15 K, m1 = 0.0755): 72.14 ± 0.64 mN/m
- surface tension liquid-gas ([1]; 298.15 K, m1 = 0.1007): 72.03 ± 0.64 mN/m
- surface tension liquid-gas ([1]; 298.15 K, m1 = 0.1261): 71.88 ± 0.64 mN/m
- surface tension liquid-gas ([1]; 298.15 K, m1 = 0.1514): 71.79 ± 0.64 mN/m
- surface tension liquid-gas ([1]; 303.15 K, m1 = 0.0502): 71.29 ± 0.63 mN/m
- surface tension liquid-gas ([1]; 303.15 K, m1 = 0.0755): 71.35 ± 0.63 mN/m
- surface tension liquid-gas ([1]; 303.15 K, m1 = 0.1007): 71.24 ± 0.63 mN/m
- surface tension liquid-gas ([1]; 303.15 K, m1 = 0.1261): 70.95 ± 0.63 mN/m
- surface tension liquid-gas ([1]; 303.15 K, m1 = 0.1514): 70.84 ± 0.63 mN/m
- surface tension liquid-gas ([1]; 308.15 K, m1 = 0.0502): 70.49 ± 0.63 mN/m
- surface tension liquid-gas ([1]; 308.15 K, m1 = 0.0755): 70.55 ± 0.63 mN/m
- surface tension liquid-gas ([1]; 308.15 K, m1 = 0.1007): 70.6 ± 0.63 mN/m
- surface tension liquid-gas ([1]; 308.15 K, m1 = 0.1261): 70.66 ± 0.63 mN/m
- surface tension liquid-gas ([1]; 308.15 K, m1 = 0.1514): 70.71 ± 0.63 mN/m

Structure (SMILES): C[C@H](N)C(=O)O [(S)-2-aminopropanoic acid] + O
- surface tension liquid-gas ([1]; 293.15 K, m1 = 0.0503): 72.86 ± 0.65 mN/m
- surface tension liquid-gas ([1]; 293.15 K, m1 = 0.0755): 72.91 ± 0.65 mN/m
- surface tension liquid-gas ([1]; 293.15 K, m1 = 0.1009): 72.78 ± 0.65 mN/m
- surface tension liquid-gas ([1]; 293.15 K, m1 = 0.1263): 72.66 ± 0.65 mN/m
- surface tension liquid-gas ([1]; 293.15 K, m1 = 0.1518): 72.53 ± 0.64 mN/m
- surface tension liquid-gas ([1]; 298.15 K, m1 = 0.0503): 72.07 ± 0.64 mN/m
- surface tension liquid-gas ([1]; 298.15 K, m1 = 0.0755): 72.12 ± 0.64 mN/m
- surface tension liquid-gas ([1]; 298.15 K, m1 = 0.1009): 72 ± 0.64 mN/m
- surface tension liquid-gas ([1]; 298.15 K, m1 = 0.1263): 71.88 ± 0.64 mN/m
- surface tension liquid-gas ([1]; 298.15 K, m1 = 0.1518): 71.76 ± 0.64 mN/m
- surface tension liquid-gas ([1]; 303.15 K, m1 = 0.0503): 71.28 ± 0.63 mN/m
- surface tension liquid-gas ([1]; 303.15 K, m1 = 0.0755): 71.33 ± 0.63 mN/m
- surface tension liquid-gas ([1]; 303.15 K, m1 = 0.1009): 71.38 ± 0.64 mN/m
- surface tension liquid-gas ([1]; 303.15 K, m1 = 0.1263): 71.43 ± 0.64 mN/m
- surface tension liquid-gas ([1]; 303.15 K, m1 = 0.1518): 71.48 ± 0.64 mN/m
- surface tension liquid-gas ([1]; 308.15 K, m1 = 0.0503): 70.46 ± 0.63 mN/m
- surface tension liquid-gas ([1]; 308.15 K, m1 = 0.0755): 70.53 ± 0.63 mN/m
- surface tension liquid-gas ([1]; 308.15 K, m1 = 0.1009): 70.58 ± 0.63 mN/m
- surface tension liquid-gas ([1]; 308.15 K, m1 = 0.1263): 70.63 ± 0.63 mN/m
- surface tension liquid-gas ([1]; 308.15 K, m1 = 0.1518): 70.68 ± 0.63 mN/m

Structure (SMILES): N[C@@H](Cc1ccccc1)C(=O)O [L-phenylalanine] + O
- surface tension liquid-gas ([1]; 293.15 K, m1 = 0.0505): 72.38 ± 0.64 mN/m
- surface tension liquid-gas ([1]; 293.15 K, m1 = 0.0759): 71.94 ± 0.64 mN/m
- surface tension liquid-gas ([1]; 293.15 K, m1 = 0.1015): 70.99 ± 0.63 mN/m
- surface tension liquid-gas ([1]; 293.15 K, m1 = 0.1273): 70.56 ± 0.63 mN/m
- surface tension liquid-gas ([1]; 293.15 K, m1 = 0.1532): 70.14 ± 0.63 mN/m
- surface tension liquid-gas ([1]; 298.15 K, m1 = 0.0505): 71.09 ± 0.63 mN/m
- surface tension liquid-gas ([1]; 298.15 K, m1 = 0.0759): 70.66 ± 0.63 mN/m
- surface tension liquid-gas ([1]; 298.15 K, m1 = 0.1015): 69.74 ± 0.62 mN/m
- surface tension liquid-gas ([1]; 298.15 K, m1 = 0.1273): 68.37 ± 0.61 mN/m
- surface tension liquid-gas ([1]; 298.15 K, m1 = 0.1532): 66.91 ± 0.6 mN/m
- surface tension liquid-gas ([1]; 303.15 K, m1 = 0.0505): 70.83 ± 0.63 mN/m
- surface tension liquid-gas ([1]; 303.15 K, m1 = 0.0759): 69.91 ± 0.62 mN/m
- surface tension liquid-gas ([1]; 303.15 K, m1 = 0.1015): 68.53 ± 0.61 mN/m
- surface tension liquid-gas ([1]; 303.15 K, m1 = 0.1273): 66.61 ± 0.6 mN/m
- surface tension liquid-gas ([1]; 303.15 K, m1 = 0.1532): 64.53 ± 0.58 mN/m
- surface tension liquid-gas ([1]; 308.15 K, m1 = 0.0505): 70.03 ± 0.62 mN/m
- surface tension liquid-gas ([1]; 308.15 K, m1 = 0.0759): 68.98 ± 0.62 mN/m
- surface tension liquid-gas ([1]; 308.15 K, m1 = 0.1015): 66.59 ± 0.6 mN/m
- surface tension liquid-gas ([1]; 308.15 K, m1 = 0.1273): 65.22 ± 0.59 mN/m
- surface tension liquid-gas ([1]; 308.15 K, m1 = 0.1532): 63.35 ± 0.57 mN/m

Structure (SMILES): CCCCCCCC[N+](C)(CCCCCCCC)CCCCCCCC.[Cl-] [N-methyl-N,N-dioctyl-1-octanaminium chloride] + O
- surface tension liquid-gas ([1]; 293.15 K, m1 = 0.002): 29.98 ± 0.4 mN/m
- viscosity ([1]; 293.15 K, m1 = 0.002): 1.043 ± 0.022 mPa·s
- speed of sound ([1]; 293.15 K, m1 = 0.002): 1483.4 ± 0.8 m/s
- mass density ([1]; 293.15 K, m1 = 0.002): 998.54 ± 0.088 kg/m3
- surface tension liquid-gas ([1]; 298.15 K, m1 = 0.002): 29.17 ± 0.39 mN/m
- viscosity ([1]; 298.15 K, m1 = 0.002): 0.9291 ± 0.019 mPa·s
- speed of sound ([1]; 298.15 K, m1 = 0.002): 1497.3 ± 0.81 m/s
- mass density ([1]; 298.15 K, m1 = 0.002): 997.375 ± 0.088 kg/m3
- surface tension liquid-gas ([1]; 303.15 K, m1 = 0.002): 28.93 ± 0.39 mN/m
- viscosity ([1]; 303.15 K, m1 = 0.002): 0.8195 ± 0.017 mPa·s
- speed of sound ([1]; 303.15 K, m1 = 0.002): 1510.7 ± 0.81 m/s
- mass density ([1]; 303.15 K, m1 = 0.002): 995.978 ± 0.088 kg/m3
- surface tension liquid-gas ([1]; 308.15 K, m1 = 0.002): 28.19 ± 0.38 mN/m
- viscosity ([1]; 308.15 K, m1 = 0.002): 0.7465 ± 0.016 mPa·s
- speed of sound ([1]; 308.15 K, m1 = 0.002): 1520.2 ± 0.81 m/s
- mass density ([1]; 308.15 K, m1 = 0.002): 994.348 ± 0.089 kg/m3

Structure (SMILES): CCCCCCCCCCCCCCCC[n+]1ccccc1.[Cl-] [cetylpyridinium chloride] + O
- surface tension liquid-gas ([1]; 293.15 K, m1 = 0.002): 41.75 ± 0.54 mN/m
- viscosity ([1]; 293.15 K, m1 = 0.002): 1.004 ± 0.021 mPa·s
- speed of sound ([1]; 293.15 K, m1 = 0.002): 1483.1 ± 0.8 m/s
- mass density ([1]; 293.15 K, m1 = 0.002): 998.567 ± 0.088 kg/m3
- surface tension liquid-gas ([1]; 298.15 K, m1 = 0.002): 41.6 ± 0.54 mN/m
- viscosity ([1]; 298.15 K, m1 = 0.002): 0.9033 ± 0.019 mPa·s
- speed of sound ([1]; 298.15 K, m1 = 0.002): 1497.2 ± 0.81 m/s
- mass density ([1]; 298.15 K, m1 = 0.002): 997.407 ± 0.088 kg/m3
- surface tension liquid-gas ([1]; 303.15 K, m1 = 0.002): 41.57 ± 0.54 mN/m
- viscosity ([1]; 303.15 K, m1 = 0.002): 0.8137 ± 0.017 mPa·s
- speed of sound ([1]; 303.15 K, m1 = 0.002): 1509.4 ± 0.81 m/s
- mass density ([1]; 303.15 K, m1 = 0.002): 996.012 ± 0.088 kg/m3
- surface tension liquid-gas ([1]; 308.15 K, m1 = 0.002): 41.35 ± 0.54 mN/m
- viscosity ([1]; 308.15 K, m1 = 0.002): 0.7557 ± 0.016 mPa·s
- speed of sound ([1]; 308.15 K, m1 = 0.002): 1519.8 ± 0.81 m/s
- mass density ([1]; 308.15 K, m1 = 0.002): 994.387 ± 0.089 kg/m3

Structure (SMILES): O [water]
- surface tension liquid-gas ([2]; 293.15 K): 72.75 ± 0.65 mN/m
- viscosity ([2]; 293.15 K): 1.002 ± 0.021 mPa·s
- mass density ([2]; 293.15 K): 998.587 ± 0.088 kg/m3
- surface tension liquid-gas ([2]; 298.15 K): 71.97 ± 0.64 mN/m
- viscosity ([2]; 298.15 K): 0.8937 ± 0.019 mPa·s
- mass density ([2]; 298.15 K): 997.425 ± 0.088 kg/m3
- surface tension liquid-gas ([2]; 303.15 K): 71.18 ± 0.63 mN/m
- viscosity ([2]; 303.15 K): 0.8001 ± 0.017 mPa·s
- mass density ([2]; 303.15 K): 996.04 ± 0.088 kg/m3
- surface tension liquid-gas ([2]; 308.15 K): 70.38 ± 0.63 mN/m
- viscosity ([2]; 308.15 K): 0.7225 ± 0.015 mPa·s
- mass density ([2]; 308.15 K): 994.425 ± 0.089 kg/m3

Structure (SMILES): O [water] + C[C@H](N)C(=O)O
- surface tension liquid-gas ([1]; 293.15 K, m2 = 0): 72.75 ± 0.65 mN/m
- surface tension liquid-gas ([1]; 298.15 K, m2 = 0): 71.97 ± 0.64 mN/m
- surface tension liquid-gas ([1]; 303.15 K, m2 = 0): 71.18 ± 0.63 mN/m
- surface tension liquid-gas ([1]; 308.15 K, m2 = 0): 70.38 ± 0.63 mN/m

Structure (SMILES): O [water] + NCC(=O)O
- surface tension liquid-gas ([1]; 293.15 K, m2 = 0): 72.75 ± 0.65 mN/m
- surface tension liquid-gas ([1]; 298.15 K, m2 = 0): 71.97 ± 0.64 mN/m
- surface tension liquid-gas ([1]; 303.15 K, m2 = 0): 71.18 ± 0.63 mN/m
- surface tension liquid-gas ([1]; 308.15 K, m2 = 0): 70.38 ± 0.63 mN/m

Structure (SMILES): O [water] + N[C@@H](Cc1ccccc1)C(=O)O
- surface tension liquid-gas ([1]; 293.15 K, m2 = 0): 72.75 ± 0.65 mN/m
- surface tension liquid-gas ([1]; 298.15 K, m2 = 0): 71.97 ± 0.64 mN/m
- surface tension liquid-gas ([1]; 303.15 K, m2 = 0): 71.18 ± 0.63 mN/m
- surface tension liquid-gas ([1]; 308.15 K, m2 = 0): 70.38 ± 0.63 mN/m
